Columns and labels:
Format in all cases: in vivo
[1] = system: redroot pigweed (Amaranthus retroflexus, AMARE); assay: Pre-emerge test, greenhouse herbicide activity screening; settings: pre-emerge, phytotoxicity rating 0-100 at 14 days after application
How it was run: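 Plants grown in 10 cm pots of sandy loam mix received acetone-dissolved compounds through a moving flat-fan nozzle. Doses ranged from 15 to 1000 g ai/ha. Pre-emerge pots were seeded one day earlier, post-emerge pots 8–21 days earlier. Fourteen days on, each pot was graded 0–100 for damage.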

[2] = system: barnyardgrass (Echinochloa crus-galli, ECHCG); assay: as above; settings: pre-emerge, phytotoxicity rating 0-100 at 14 days after application
How it was run: (§1)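 Compounds in acetone were track-sprayed at 15-1000 g ai/ha (187 l/ha) on sandy loam pots: pre-emerge one day after seeding, post-emerge at 2-3 leaf stage with 0.25% v/v non-ionic surfactant. Phytotoxicity was rated 14 days later on a 0 (no damage) to 100 (complete death) scale.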

[3] = system: green foxtail (Setaria viridis, SETVI); assay: as above; settings: pre-emerge, phytotoxicity rating 0-100 at 14 days after application
How it was run: as §1

[4] = system: ivyleaf morningglory (Ipomoea hederacea, IPOHE); assay: as above; settings: pre-emerge, phytotoxicity rating 0-100 at 14 days after application
How it was run: as §1

[5] = system: lambsquarters (Chenopodium album, CHEAL); assay: as above; settings: pre-emerge, phytotoxicity rating 0-100 at 14 days after application
How it was run: as §1

[6] = system: large crabgrass (Digitaria sanguinalis, DIGSA); assay: as above; settings: pre-emerge, phytotoxicity rating 0-100 at 14 days after application
How it was run: as §1

[7] = system: sicklepod (Cassia obtusifolia, CASOB); assay: as above; settings: pre-emerge, phytotoxicity rating 0-100 at 14 days after application
How it was run: as §1

[8] = system: velvetleaf (Abutilon theophrasti, ABUTH); assay: as above; settings: pre-emerge, phytotoxicity rating 0-100 at 14 days after application
How it was run: as §1

[9] = system: field corn (Zea mays L., var. Dekalb 535, CORN); assay: Pre-emerge test, crop safety; settings: crop damage, pre-emerge, phytotoxicity rating 0-100 at 14 days after application
How it was run: (§2)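 Sandy loam pots; pre-emerge: sown 1 d pre-spray, surface-watered after, then bottom-watered. Post-emerge: sown 8–21 d before, 2–3 leaf stage, + 0.25% v/v NIS, bottom-watered. Acetone, 187 l/ha track spray, 15–1000 g ai/ha. 0–100 injury score, day 14.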

[10] = system: upland rice (Oryza sp., var. Tebonnet, RICE); assay: Pre-emerge test, crop safety; settings: crop damage, pre-emerge, phytotoxicity rating 0-100 at 14 days after application
How it was run: as §2

[11] = system: barnyardgrass (Echinochloa crus-galli, ECHCG); assay: Post-emerge test, greenhouse herbicide activity screening; settings: post-emerge, phytotoxicity rating 0-100 at 14 days after application
How it was run: as §1

[12] = system: green foxtail (Setaria viridis, SETVI); assay: as above; settings: post-emerge, phytotoxicity rating 0-100 at 14 days after application
How it was run: as §1

[13] = system: ivyleaf morningglory (Ipomoea hederacea, IPOHE); assay: as above; settings: post-emerge, phytotoxicity rating 0-100 at 14 days after application
How it was run: as §1

[14] = system: lambsquarters (Chenopodium album, CHEAL); assay: as above; settings: post-emerge, phytotoxicity rating 0-100 at 14 days after application
How it was run: as §1

[15] = system: large crabgrass (Digitaria sanguinalis, DIGSA); assay: as above; settings: post-emerge, phytotoxicity rating 0-100 at 14 days after application
How it was run: as §1

[16] = system: redroot pigweed (Amaranthus retroflexus, AMARE); assay: as above; settings: post-emerge, phytotoxicity rating 0-100 at 14 days after application
How it was run: as §1

[17] = system: sicklepod (Cassia obtusifolia, CASOB); assay: as above; settings: post-emerge, phytotoxicity rating 0-100 at 14 days after application
How it was run: as §1

[18] = system: velvetleaf (Abutilon theophrasti, ABUTH); assay: as above; settings: post-emerge, phytotoxicity rating 0-100 at 14 days after application
How it was run: as §1

[19] = system: field corn (Zea mays L., var. Dekalb 535, CORN); assay: Post-emerge test, crop safety; settings: post-emerge, crop damage rating 0-100 at 14 days after application
How it was run: as §1

[20] = system: upland rice (Oryza sp., var. Tebonnet, RICE); assay: Post-emerge test, crop safety; settings: post-emerge, crop damage rating 0-100 at 14 days after application
How it was run: as §1

Cc1c(Cl)cc(F)c(-n2c(=O)cc(C(F)(F)F)n(C)c2=O)c1NC(=O)OCc1ccco1 [4-70]
Pre-emerge Herbicidal Activity AMARE ([1]; rate 63 g ai/ha): 100 | Pre-emerge Herbicidal Activity AMARE ([1]; rate 250 g ai/ha): 100 | Pre-emerge Herbicidal Activity ECHCG ([2]; rate 63 g ai/ha): 40 | Pre-emerge Herbicidal Activity ECHCG ([2]; rate 250 g ai/ha): 95 | Pre-emerge Herbicidal Activity SETVI ([3]; rate 63 g ai/ha): 60 | Pre-emerge Herbicidal Activity SETVI ([3]; rate 250 g ai/ha): 100 | Pre-emerge Herbicidal Activity IPOHE ([4]; rate 63 g ai/ha): 100 | Pre-emerge Herbicidal Activity IPOHE ([4]; rate 250 g ai/ha): 100 | Pre-emerge Herbicidal Activity CHEAL ([5]; rate 63 g ai/ha): 100 | Pre-emerge Herbicidal Activity CHEAL ([5]; rate 250 g ai/ha): 100 | Pre-emerge Herbicidal Activity DIGSA ([6]; rate 63 g ai/ha): 60 | Pre-emerge Herbicidal Activity DIGSA ([6]; rate 250 g ai/ha): 100 | Pre-emerge Herbicidal Activity CASOB ([7]; rate 63 g ai/ha): 50 | Pre-emerge Herbicidal Activity CASOB ([7]; rate 250 g ai/ha): 80 | Pre-emerge Herbicidal Activity ABUTH ([8]; rate 63 g ai/ha): 100 | Pre-emerge Herbicidal Activity ABUTH ([8]; rate 250 g ai/ha): 100 | Pre-emerge Herbicidal Activity CORN ([9]; rate 63 g ai/ha): 90 | Pre-emerge Herbicidal Activity CORN ([9]; rate 250 g ai/ha): 95 | Pre-emerge Herbicidal Activity RICE ([10]; rate 63 g ai/ha): 40 | Pre-emerge Herbicidal Activity RICE ([10]; rate 250 g ai/ha): 70 | Post-emerge Herbicidal Activity ECHCG ([11]; 63 g ai/ha): 40 | Post-emerge Herbicidal Activity ECHCG ([11]; 250 g ai/ha): 80 | Post-emerge Herbicidal Activity SETVI ([12]; 63 g ai/ha): 60 | Post-emerge Herbicidal Activity SETVI ([12]; 250 g ai/ha): 95 | Post-emerge Herbicidal Activity IPOHE ([13]; 63 g ai/ha): 100 | Post-emerge Herbicidal Activity IPOHE ([13]; 250 g ai/ha): 100 | Post-emerge Herbicidal Activity CHEAL ([14]; 63 g ai/ha): 90 | Post-emerge Herbicidal Activity CHEAL ([14]; 250 g ai/ha): 100 | Post-emerge Herbicidal Activity DIGSA ([15]; 63 g ai/ha): 30 | Post-emerge Herbicidal Activity DIGSA ([15]; 250 g ai/ha): 70 | Post-emerge Herbicidal Activity AMARE ([16]; 63 g ai/ha): 90 | Post-emerge Herbicidal Activity AMARE ([16]; 250 g ai/ha): 100 | Post-emerge Herbicidal Activity CASOB ([17]; 63 g ai/ha): 60 | Post-emerge Herbicidal Activity CASOB ([17]; 250 g ai/ha): 90 | Post-emerge Herbicidal Activity ABUTH ([18]; 63 g ai/ha): 100 | Post-emerge Herbicidal Activity ABUTH ([18]; 250 g ai/ha): 100 | Post-emerge Herbicidal Activity CORN ([19]; 63 g ai/ha): 40 | Post-emerge Herbicidal Activity CORN ([19]; 250 g ai/ha): 90 | Post-emerge Herbicidal Activity RICE ([20]; 63 g ai/ha): 30 | Post-emerge Herbicidal Activity RICE ([20]; 250 g ai/ha): 70
